From patent publication US20220192996A1, “CORE-SHELL STRUCTURE, PREPARATION, MEDICINE FOR EXTERNAL APPLICATION, TAPE AGENT AND COSMETIC PRODUCT” (SEKISUI CHEMICAL CO., LTD., priority 2019, published 2022)
Counter-ions that a name gives are not always drawn.

Key:
[1] = tested on: dorsal skin of a rabbit; assay: Primary irritation index of the active ingredient (4% by weight in Plastibase); assay type: in vivo; settings: 24 h enclosed application
Experimental: The phrase “low skin irritation” means skin irritation having a primary irritation index (P.I.I.) of 5 or less. The primary irritation index can be measured by the following method.
An active ingredient is added and mixed to an ointment base, Plastibase (manufactured by Taisho Pharmaceutical Co., Ltd.) so as to be 4% by weight based on the total weight, and dispersed to produce a preparation.
The dorsal skin of a rabbit is shaved with an electric clipper (with an electric shaver if necessary). On the dorsal healthy skin, two points in each of right and left sides of the dorsal midline, that is, four points in total are set to be an administration site. Next, the produced preparation is taken out with a spatula and spread evenly on a piece of lint having a size of 2 cm×2 cm, and the piece of lint is attached to the administration site. The piece of lint is fixed by covering with a non-woven adhesive bandage (manufactured by Nichiban Co., Ltd., MESHPORE, No. 50). Then, the administration sites are altogether wrapped with gauze and enclosed by covering with an adhesive cloth elastic bandage (manufactured by Nichiban Co., Ltd., ELASTOPORE, No. 100). The enclosure is released 24 hours after the start of administration, and the administered samples are removed.
The skin reaction is visually observed with the naked eye 24 hours after the administration (30 minutes after the release of the enclosure and the removal of the administered samples). […]
Specifically, for each administered sample at each time of observation, the individual score of the skin reaction at the administration site of each rabbit (the total of scores of erythema/eschar formation and edema formation) is calculated. Then, the primary irritation index (P.I.I.) is calculated from the individual scores at 24 hours and 72 hours after the administration (the score at 48 hours after the administration is not added). Specifically, the primary irritation index is calculated using Formulae (1) and (2) described below. […]

[2] = Octanol/water partition coefficient; assay type: physicochemical; settings: Log10, octanol / aqueous buffer pH 7
Experimental: In the present invention, the octanol/water partition coefficient is determined from the concentration of the active ingredient in each phase by adding the active ingredient to octanol and an aqueous buffer solution having a pH of 7 in a flask and then shaking the flask. Specifically, the octanol/water partition coefficient can be determined by calculating using the formula: octanol/water partition coefficient=Log10 (concentration in octanol phase/concentration in aqueous phase).

| octanol/water partition coefficient [2] | logD ([2]; octanol / aqueous buffer solution) | Structure (SMILES) | primary irritation index (P.I.I.) of the active ingredient [1] |
| --- | --- | --- | --- |
|  |  | CC(C(=O)O)c1ccc(CC2CCCC2=O)cc1 (centres unmarked) [loxoprofen sodium dihydrate] | 0.3 |
|  |  | CCN(C)C(=O)Oc1cccc([C@H](C)N(C)C)c1 [rivastigmine] | 0.5 |
|  |  | CC12CC3CC(C)(C1)CC(N)(C3)C2 [memantine hydrochloride] | 2.5 |
| 0.0 | 0 | CCCc1nc(C)c2c(=O)[nH]c(-c3cc(S(=O)(=O)N4CCN(CC)CC4)ccc3OCC)nn12 [vardenafil hydrochloride hydrate] |  |
